Values after ≈ are worked out from the molar mass of the structure shown.
Tests used:
[1] = Average solubility; type: physicochemical
[2] = Anti-oxidant activity
[3] = Chemical stability (H2O, pH 7.4); type: physicochemical
[4] = Metabolic stability in human S9 fraction; type: in vitro ADME; details: read-out: Half life, t1/2 S9
[5] = tested on: MGAT3; experiment: MGAT3 transcription ratio, AD patient / control PBMCs (qPCR); type: cell-based, human; design: key: Dash (−) indicates minimal effect; (+) indicates a ratio of 1.0-1.5; (++) indicates a ratio of 1.5-2.0; (+++ to ++++) indicates a ratio of 2.0 and above; (+++ to ++++) indicates a ratio of 2.0 and above; details: Aβ stimulation
Description: (§1) qPCR reactions of cultured monocyte cDNAs. One μL total cellular cDNA per reaction is used in triplicate reactions for each test gene, and for each culture treatment. SYBR-Green reactions were run on a Continuous Fluorescence real-time thermocycler and analyzed. Cycle threshold (Ct) values are recorded for each replicate reaction, and are then averaged and normalized against mean Ct values from one or more control genes. Fold-expression differences relative to untreated cells are determined using the 2^−ΔΔCt method as previously described. Data from the curcumin concentration range are plotted in order to determine EC50 values (concentrations producing one-half maximal stimulant activity), which are used for comparisons of potency between different compounds. Data are also evaluated for each gene with regard to sensitivity, maximally effective concentration of curcuminoid, response to Aβ, and overall magnitude of fold-expression changes.
(§2) MGAT3 and/or TLR transcription were tested by qPCR in human monocyte cells treated with curcuminoids and compared the results to those treated with vehicle (Table 7). As discussed above, activation or up-regulation of macrophage MGAT3 or TLR's results in many functional outcomes, including the enhancement of […] and removal of Aβ, increased apoptosis, secretion of inflammatory cytokines, and other anti-AD antimicrobial activities. […] Thus, the ratio of MGAT3 or TLR transcription upon Aβ stimulation of human monocytes versus vehicle treatment provides an indicator and sensitive method to test the in vitro efficacy of drug candidates. […] The relative biological activity of the curcumin analogs in AD patient and control cells was ascertained in the in vitro Aβ assay described above (see Example 2).

[6] = Metabolic stability in human liver microsomes; type: in vitro ADME; details: read-out: Half life, t1/2 HLM
[7] = tested on: TLR 4; experiment: TLR 4 transcription ratio, AD patient / control PBMCs (qPCR); type: cell-based, human; details: Aβ stimulation
Description: as §1, §2

[8] = tested on: TLR 2; experiment: TLR 2 transcription ratio, AD patient / control PBMCs (qPCR); type: cell-based, human; details: Aβ stimulation
Description: as §1, §2

[9] = tested on: TLR 3; experiment: TLR 3 transcription ratio, AD patient / control PBMCs (qPCR); type: cell-based, human; details: Aβ stimulation
Description: as §1, §2

[10] = water (aqueous solution), pH 7.4, read-out: Chemical stability t1/2 pH 7.4 (converted)
[11] = water, H2O, read-out: Chemical stability t1/2 H2O (converted)

| Compound | IC50 [2] | half-life [4] | Relative ratio of MGAT3 transcription in AD patient / control PBMC's [5] | half-life ([6]; human) | also measured |
| --- | --- | --- | --- | --- | --- |
| O=C(/C=C(\O)CCc1ccc(O)cc1)CCc1ccc(O)cc1 [Compound 5, 5-Hydroxy-1,7-bis(4-hydroxyphenyl)hept-4-en-3-one] | > 250 µM |  |  |  | Avg. Solubility [1]: insol |
| O=C(/C=C(O)/C=C/c1cccc(O)c1)/C=C/c1cccc(O)c1 [Compound 19, 5-Hydroxy-1,7-bis-(3-hydroxyphenyl)-hepta-1,4,6-trien-3-one] |  | 6.6 min | + ((+) indicates a ratio of 1.0-1.5) | 13.3 min | half-life [3, 10]: 66.2 min; half-life [3, 11]: 22.8 min |
| CC(C)C(N)C(=O)Oc1ccc(/C=C/C(=O)C2CCC/C(=C\c3ccc(OC(=O)C(N)C(C)C)cc3)C2=O)cc1 (centres unmarked) [Compound 37] | > 250 µM | 33.2 min | ++ ((++) indicates a ratio of 1.5-2.0) |  | half-life [3, 10]: < 16 min; half-life [3, 11]: 95.9 min; half-life ([6]; value given in h): > 60 min |
| CN(C)c1ccc(/C=C/C(=O)/C=C(O)/C=C/c2ccc(N(C)C)cc2)cc1 [Compound 20, 1,7-bis-(4-Dimethylaminophenyl)-5-hydroxy-hepta-1,4,6-trien-3-one] |  | 22.7 min | ++++ ((+++ to ++++) indicates a ratio of 2.0 and above) | 41.5 min | Chemical stability H2O (stable/unstable) ([3]; H2O): stable (stability half-lives greater than 5 hours); Chemical stability pH 7.4 (stable/unstable) ([3]; pH 7.4): stable (stability half-lives greater than 5 hours); solubility [1]: 0.23 µg/mL (≈ 0.635 µM) |
| Cc1ccc(/C=C/C(=O)/C=C(O)/C=C/c2ccc(C)cc2)cc1 [Compound 28, 5-Hydroxy-1,7-ditolylhepta-1,4,6-trien-3-one] |  |  | ++ ((++) indicates a ratio of 1.5-2.0) |  |  |
| CSc1ccc(/C=C/C(=O)/C=C(O)/C=C/c2ccc(SC)cc2)cc1 [Compound 29, 1,7-bis(4-Methylthiophenyl)-5-hydroxyhepta-1,4,6-trien-3-one] |  | 75.4 min | ++++ ((+++ to ++++) indicates a ratio of 2.0 and above) | 97.1 min |  |
| COc1ccccc1/C=C/C(=O)/C=C(O)/C=C/c1ccccc1OC [Compound 25, 5-Hydroxy-1,7-bis-(2-methoxyphenyl)-hepta-1,4,6-trien-3-one] |  | 10.9 min | ++++ ((+++ to ++++) indicates a ratio of 2.0 and above) | 72.8 min | Relative ratio of TLR 4 transcription in AD patient / control PBMC's [7]: TLR 4 + ((+) indicates a ratio of 1.0-1.5); Relative ratio of TLR 2 transcription in AD patient / control PBMC's [8]: TLR 2 +++ ((+++ to ++++) indicates a ratio of 2.0 and above); Relative ratio of TLR 3 transcription in AD patient / control PBMC's [9]: TLR 3 ++ ((++) indicates a ratio of 1.5-2.0) |
| CC(=O)Oc1ccc(/C=C/C(=O)/C=C(O)/C=C/c2ccc(OC(C)=O)cc2)cc1 [Compound 17, Acetic acid 4-[7-(4-acetoxy-phenyl)-5-hydroxy-3-oxo-hepta-1,4,6-trienyl]-phenyl ester] |  |  | − |  |  |
| CC(C)(C)c1ccc(/C=C/C(=O)/C=C(O)/C=C/c2ccc(C(C)(C)C)cc2)cc1 [Compound 30, 1,7-bis(4-tert-Butylphenyl)-5-hydroxyhepta-1,4,6-trien-3-one] | > 250 µM |  | + ((+) indicates a ratio of 1.0-1.5) |  | Relative ratio of TLR 4 transcription in AD patient / control PBMC's [7]: TLR 4 + ((+) indicates a ratio of 1.0-1.5); Relative ratio of TLR 2 transcription in AD patient / control PBMC's [8]: TLR 2 + ((+) indicates a ratio of 1.0-1.5); Relative ratio of TLR 3 transcription in AD patient / control PBMC's [9]: TLR 3 ++ ((++) indicates a ratio of 1.5-2.0) |
| COc1ccc(F)cc1/C=C/C(O)=C1\CCC/C(=C\c2cc(F)ccc2OC)C1=O [Compound 11] | > 250 µM |  | + ((+) indicates a ratio of 1.0-1.5) |  |  |
| CC(C)(C)C(=O)Oc1ccc(/C=C/C(=O)/C=C(O)/C=C/c2ccc(OC(=O)C(C)(C)C)cc2)cc1 [Compound 18, 2,2-Dimethyl-propionic acid 4-{7-[4-(2,2-dimethyl-propionyloxy)-phenyl]-3,5-dioxo-hepta-1,6-dienyl}-phenyl ester] |  |  | − |  |  |
| O=C(/C=C(O)/C=C/c1ccc(O)c(Cl)c1)/C=C/c1ccc(O)c(Cl)c1 [Compound 24, 1,7-bis-(3-Chloro-4-hydroxyphenyl)-5-Hydroxy-hepta-1,4,6-trien-3-one] |  |  | − |  |  |
| COc1cc(O)ccc1/C=C/C(=O)/C=C(O)/C=C/c1ccc(O)cc1OC [Compound 22, 5-Hydroxy-1,7-bis-(4-hydroxy-2-methoxyphenyl)-hepta-1,4,6-trien-3-one] |  | 2.4 min | ++ ((++) indicates a ratio of 1.5-2.0) | 31.5 min |  |
| COc1ccc(/C=C/C(=O)/C=C(O)/C=C/c2ccc(OC)cc2)cc1 [Compound 16, 5-Hydroxy-1,7-bis-(4-methoxy-phenyl)-hepta-1,4,6-trien-3-one] |  | 10.9 min | − | 9 min |  |
| O=C1C(=Cc2ccc(O)cc2)COCC1=Cc1ccc(O)cc1 [Compound 15, 3,5-bis(4-Hydroxybenzylidene)dihydro-2H-pyran-4(3H)-one] | > 250 µM |  |  |  |  |
| COc1ccc(/C=C/C(=O)/C=C(O)/C=C/c2ccc(OC)c(O)c2)cc1O [Compound 21, 5-Hydroxy-1,7-bis-(3-hydroxy-4-methoxyphenyl)-hepta-1,4,6-trien-3-one] |  | 6.6 min | + ((+) indicates a ratio of 1.0-1.5) | 5 min |  |
| NCCCCC(N)C(=O)Oc1ccc(/C=C/C(=O)C2CCC/C(=C\c3ccc(OC(=O)C(N)CCCCN)cc3)C2=O)cc1 (centres unmarked) [Compound 38] | > 250 µM | 33.6 min | + ((+) indicates a ratio of 1.0-1.5) |  | Chemical stability H2O (stable/unstable) ([3]; H2O): unstable (stability half-lives less than 5 minutes); Chemical stability pH 7.4 (stable/unstable) ([3]; pH 7.4): unstable (stability half-lives less than 5 minutes); half-life ([6]; value given in h): > 60 min |
| CC/C(C(=O)/C=C/c1ccc(N(C)C)cc1)=C(O)\C=C\c1ccc(N(C)C)cc1 [Compound 9, 1,7-bis(4-Dimethylaminophenyl)-4-ethyl-hepta-1,6-diene-3,5-dione] | 55.3 µM |  |  |  |  |
| COc1ccc(F)cc1/C=C/C(O)=C/C(=O)/C=C/c1ccc(N(C)C)cc1 [Compound 31] |  |  | ++ ((++) indicates a ratio of 1.5-2.0) |  | Relative ratio of TLR 4 transcription in AD patient / control PBMC's [7]: TLR 4 ++ ((++) indicates a ratio of 1.5-2.0); Relative ratio of TLR 2 transcription in AD patient / control PBMC's [8]: TLR 2 ++ ((++) indicates a ratio of 1.5-2.0); Relative ratio of TLR 3 transcription in AD patient / control PBMC's [9]: TLR 3 ++ ((++) indicates a ratio of 1.5-2.0) |
| CC/C(C(=O)/C=C/c1ccc(N(C)C)cc1OC)=C(O)\C=C\c1ccc(N(C)C)cc1OC [Compound 13, 1,7-Bis(4-(dimethylamino)-2-methoxyphenyl)-4-ethyl-hepta-1,6-diene-3,5-dione] | 67.4 µM |  |  |  |  |
| O=C(/C=C(O)/C=C/c1ccccc1)/C=C/c1ccccc1 [Compound 27, 5-Hydroxy-1,7-diphenylhepta-1,4,6-trien-3-one] |  |  | + ((+) indicates a ratio of 1.0-1.5) |  |  |
| O=C1/C(=C(O)/C=C/c2ccc(O)cc2)CCC/C1=C\c1ccc(O)cc1 [Compound 6, 2-(4-Hydroxybenzylidene)-6-(3-(4-hydroxyphenyl)acryloyl)cyclohexanone] | > 250 µM | 35.2 min | +++ ((+++ to ++++) indicates a ratio of 2.0 and above) | 60.6 min | half-life [3, 10]: 436 min; half-life [3, 11]: 244 min |

Reference: patent US20120040976A1, “SMALL MOLECULE IMMUNOMODULATORS FOR ALZHEIMER'S DISEASE” (HUMAN BIOMOLECULAR RESEARCH INSTITUTE, priority 2008, published 2012)
